Laboratory results from patent US9433621B2, “Substituted pyridine and pyrimidine derivatives and their use in treating viral infections” (Merck Sharp & Dohme Corp., priority 2010, dated 2016).

system: HCV replicon; test: Cell-Based HCV Replicon Assay; settings: Hepatitis C virus; HCV Replicon assay, EC90 given as numeric bound, Table VI; read-out: EC90
Outline: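 EC50 and EC90 taken from sigmoid fits of ΔCT (5B minus GAPDH) as the concentrations raising ΔCT by 1 and 3.2 over baseline, via multiplex real-time RT-PCR on lysates after 3 days. Replicon cells at 5000/well; 10 two-fold dilutions from 25–1 μM, 0.5% DMSO, 10% FBS.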

Compound	EC90
Cc1nc(N[C@H](C)c2c(F)c(F)c(C)c(F)c2F)nc(NC2(CO)CCCC2)c1-c1nc2c(C3CC3)nccc2s1 [Example 5128]	> 1000 nM
CO[C@H](C)CN(C)c1nc(C)c(-c2nc3c(C)nccc3s2)c(N[C@@H]2C[C@H](C(C)(C)O)[C@@H](O)[C@H]2O)n1 [Example 5171]	> 1000 nM

same assay, conditions: Hepatitis C virus; HCV Replicon assay, EC90 range, Table VI; read-out: EC90

Compound	EC90
Cc1nc(NCCC2(O)CCCC2)nc(N[C@@H]2C[C@H](CS(=O)(=O)c3cc(F)cc(F)c3)[C@@H](O)[C@H]2O)c1-c1nc2c(C)nccc2s1 [Example 5120]	< 500 nM
Cc1nc(NC2(C3CC3)CC2)nc(NC2(CO)CCCC2)c1-c1nc2c(C)nccc2s1 [Example 5121]	< 500 nM
Cc1nc(NC2(C3CC3)CC2)nc(N[C@@H]2C[C@H]([C@@H](O)C(C)C)[C@@H](O)[C@H]2O)c1-c1nc2c(C)nccc2s1 [Example 5122]	< 500 nM
COCCNc1nc(C)c(-c2nc3c(C)nccc3s2)c(N[C@@H]2C[C@H]([C@@H](O)C(C)C)[C@@H](O)[C@H]2O)n1 [Example 5123]	< 500 nM
Cc1nc(N)nc(NC2(CO)CCCC2)c1-c1nc2c(C3CC3)nccc2s1 [Example 5124]	< 500 nM
Cc1nc(N)nc(N[C@@H]2C[C@H]([C@@H](O)C(C)C)[C@@H](O)[C@H]2O)c1-c1nc2c(C)nccc2s1 [Example 5125]	< 500 nM
COCCNc1nc(C)c(-c2nc3c(C4CC4)nccc3s2)c(NC2(CO)CCCC2)n1 [Example 5126]	< 500 nM
Cc1nc(NCC2(O)CCCC2)nc(NC2(CO)CCCC2)c1-c1nc2c(C3CC3)nccc2s1 [Example 5127]	< 500 nM
Cc1nc(NCC(F)(F)C(F)(F)F)nc(NC2(CO)CCCC2)c1-c1nc2c(C3CC3)nccc2s1 [Example 5129]	< 500 nM
Cc1nc(N)nc(NC2(CO)CCCC2)c1-c1nc2c(C)nccc2s1 [Example 5130]	< 500 nM
COCCNc1nc(C)c(-c2nc3c(C)nccc3s2)c(NC2(CO)CCCC2)n1 [Example 5131]	< 500 nM
Cc1nc(NCC2CC2)nc(NC2(CO)CCCC2)c1-c1nc2c(C)nccc2s1 [Example 5132]	< 500 nM
Cc1nc(NCC2(O)CCCC2)nc(NC2(CO)CCCC2)c1-c1nc2c(C)nccc2s1 [Example 5133]	< 500 nM
Cc1nc(NCC(F)(F)C(F)(F)F)nc(NC2(CO)CC2)c1-c1nc2c(C)nccc2s1 [Example 5134]	< 500 nM
CO[C@@H](CNc1nc(C)c(-c2nc3c(C)nccc3s2)c(N[C@@H]2C[C@H](C(C)(C)O)[C@@H](O)[C@H]2O)n1)c1ccccc1 [Example 5135]	< 500 nM
CO[C@H]1CCCC[C@@H]1Nc1nc(C)c(-c2nc3c(C)nccc3s2)c(N[C@@H]2C[C@H](CO)[C@@H](O)[C@H]2O)n1 [Example 5136]	< 500 nM
CO[C@H]1CCCC[C@@H]1Nc1nc(C)c(-c2nc3c(C)nccc3s2)c(N[C@@H]2C[C@H](C(C)(C)O)[C@@H](O)[C@H]2O)n1 [Example 5137]	500 to 5000 nM
CO[C@H]1CCCC[C@@H]1Nc1nc(C)c(-c2nc3c(C4CC4)nccc3s2)c(N[C@@H]2C[C@H](CO)[C@@H](O)[C@H]2O)n1 [Example 5138]	< 500 nM
CO[C@@H]1CCCC[C@H]1Nc1nc(C)c(-c2nc3c(C)nccc3s2)c(N[C@@H]2C[C@H](CO)[C@@H](O)[C@H]2O)n1 [Example 5139]	< 500 nM
CO[C@@H]1CCCC[C@H]1Nc1nc(C)c(-c2nc3c(C)nccc3s2)c(N[C@@H]2C[C@H](C(C)(C)O)[C@@H](O)[C@H]2O)n1 [Example 5140]	< 500 nM

Compound	EC90
CO[C@@H]1CCCC[C@H]1Nc1nc(C)c(-c2nc3c(C4CC4)nccc3s2)c(N[C@@H]2C[C@H](CO)[C@@H](O)[C@H]2O)n1 [Example 5141]	< 500 nM
CO[C@@H]1CCC[C@@H]1Nc1nc(C)c(-c2nc3c(C4CC4)nccc3s2)c(N[C@@H]2C[C@H](CO)[C@@H](O)[C@H]2O)n1 [Example 5142]	< 500 nM
CO[C@@H]1CCC[C@@H]1Nc1nc(C)c(-c2nc3c(C)nccc3s2)c(N[C@@H]2C[C@H](CO)[C@@H](O)[C@H]2O)n1 [Example 5143]	< 500 nM
CO[C@@H]1CCC[C@@H]1Nc1nc(C)c(-c2nc3c(C)nccc3s2)c(N[C@@H]2C[C@H](C(C)(C)O)[C@@H](O)[C@H]2O)n1 [Example 5144]	500 to 5000 nM
CO[C@@H]1CCC[C@@H]1Nc1nc(C)c(-c2nc3c(C)nccc3s2)c(N[C@@H]2C[C@H](C(C)(C)Cl)[C@@H](O)[C@H]2O)n1 [Example 5145]	< 500 nM
CO[C@H]1CCC[C@@H]1Nc1nc(C)c(-c2nc3c(C)nccc3s2)c(N[C@@H]2C[C@H](CO)[C@@H](O)[C@H]2O)n1 [Example 5146]	< 500 nM
CO[C@H]1CCC[C@@H]1Nc1nc(C)c(-c2nc3c(C4CC4)nccc3s2)c(N[C@@H]2C[C@H](CO)[C@@H](O)[C@H]2O)n1 [Example 5147]	< 500 nM
Cc1nc(N[C@@H]2CCCC[C@H]2O)nc(N[C@@H]2C[C@H](CO)[C@@H](O)[C@H]2O)c1-c1nc2c(C)nccc2s1 [Example 5148]	< 500 nM
Cc1nc(N[C@H]2CCC[C@H]2O)nc(N[C@@H]2C[C@H](CO)[C@@H](O)[C@H]2O)c1-c1nc2c(C)nccc2s1 [Example 5149]	< 500 nM
Cc1nc(N[C@H]2CCC[C@@H]2O)nc(N[C@@H]2C[C@H](CO)[C@@H](O)[C@H]2O)c1-c1nc2c(C)nccc2s1 [Example 5150]	< 500 nM
Cc1nc(N)nc(N[C@H]2CCC[C@@H]2O)c1-c1nc2c(C)nccc2s1 [Example 5151]	< 500 nM
Cc1nc(NC2(C)CCC2)nc(N[C@@H]2C[C@H](CS(C)(=O)=O)[C@@H](O)[C@H]2O)c1-c1nc2c(C)nccc2s1 [Example 5152]	< 500 nM
Cc1nc(NC2(C)CCC2)nc(N[C@@H]2C[C@H](C(C)(C)O)[C@@H](O)[C@H]2O)c1-c1nc2c(C)nccc2s1 [Example 5153]	< 500 nM
Cc1nc(NCC(F)(F)F)nc(N[C@H]2CCC[C@@H]2O)c1-c1nc2c(C)nccc2s1 [Example 5154]	< 500 nM
COCCNc1nc(C)c(-c2nc3c(C)nccc3s2)c(N[C@H]2CCC[C@@H]2O)n1 [Example 5155]	< 500 nM
Cc1nc(NCC2CC2)nc(N[C@H]2CCC[C@@H]2O)c1-c1nc2c(C)nccc2s1 [Example 5156]	< 500 nM
Cc1nc(NCC2CC2)nc(N[C@H]2C=C[C@@H](CO)C2)c1-c1nc2c(C)nccc2s1 [Example 5157]	< 500 nM
Cc1nc(NCC2(O)CCCC2)nc(N[C@H]2C=C[C@@H](CO)C2)c1-c1nc2c(C)nccc2s1 [Example 5158]	< 500 nM
Cc1nc(NCC2(O)CCCC2)nc(N[C@H]2CC[C@@H](CO)C2)c1-c1nc2c(C)nccc2s1 [Example 5159]	< 500 nM
Cc1nc(N[C@@H](CO)Cc2ccccc2)nc(N[C@@H]2C[C@H](C(C)(C)O)[C@@H](O)[C@H]2O)c1-c1nc2c(C)nccc2s1 [Example 5160]	500 to 5000 nM

Compound	EC90
COCCCNc1nc(C)c(-c2nc3c(C)nccc3s2)c(N[C@@H]2C[C@H](C(C)(C)O)[C@@H](O)[C@H]2O)n1 [Example 5161]	< 500 nM
Cc1nc(N[C@@H](CO)CC(C)C)nc(N[C@@H]2C[C@H](C(C)(C)O)[C@@H](O)[C@H]2O)c1-c1nc2c(C)nccc2s1 [Example 5162]	< 500 nM
Cc1nc(NC(C)CCCC(C)(C)O)nc(N[C@@H]2C[C@H](C(C)(C)O)[C@@H](O)[C@H]2O)c1-c1nc2c(C)nccc2s1 (some centres unmarked) [Example 5163]	< 500 nM
Cc1nc(NCC(F)(F)C(F)(F)C(F)(F)F)nc(N[C@H]2C=C[C@@H](CO)C2)c1-c1nc2c(C)nccc2s1 [Example 5164]	< 500 nM
Cc1nc(NCC(F)(F)C(F)(F)F)nc(N[C@H]2C=C[C@@H](CO)C2)c1-c1nc2c(C)nccc2s1 [Example 5165]	< 500 nM
Cc1nc(NCC(F)(F)C(F)(F)C(F)(F)F)nc(N[C@H]2CC[C@@H](CO)C2)c1-c1nc2c(C)nccc2s1 [Example 5166]	< 500 nM
Cc1nc(N)nc(N[C@H]2C=C[C@@H](CO)C2)c1-c1nc2c(C)nccc2s1 [Example 5167]	< 500 nM
Cc1nc(NCC(F)(F)C(F)(F)F)nc(N[C@H]2CC[C@@H](CO)C2)c1-c1nc2c(C)nccc2s1 [Example 5168]	< 500 nM
Cc1nc(N[C@H](C)c2c(F)c(F)c(C)c(F)c2F)nc(N[C@H]2C=C[C@@H](CO)C2)c1-c1nc2c(C)nccc2s1 [Example 5169]	< 500 nM
Cc1nc(NCC2(O)CC2)nc(N[C@H]2C=C[C@@H](CO)C2)c1-c1nc2c(C)nccc2s1 [Example 5170]	< 500 nM
Cc1nc(N[C@H](C)C2CC2)nc(N[C@@H]2C[C@H](C(C)(F)F)[C@@H](O)[C@H]2O)c1-c1nc2c(C3CC3)nccc2s1 [Example 5172]	< 500 nM
Cc1nc(NC2CC2)nc(N[C@@H]2C[C@H](C(C)(F)F)[C@@H](O)[C@H]2O)c1-c1nc2c(C3CC3)nccc2s1 [Example 5173]	< 500 nM
CCCNc1nc(C)c(-c2nc3c(C4CC4)nccc3s2)c(N[C@@H]2C[C@H](C(C)(F)F)[C@@H](O)[C@H]2O)n1 [Example 5174]	< 500 nM
Cc1nc(NCC(C)C)nc(N[C@@H]2C[C@H](C(C)(F)F)[C@@H](O)[C@H]2O)c1-c1nc2c(C3CC3)nccc2s1 [Example 5175]	< 500 nM
Cc1nc(NCC(C)(C)C)nc(N[C@@H]2C[C@H](C(C)(F)F)[C@@H](O)[C@H]2O)c1-c1nc2c(C3CC3)nccc2s1 [Example 5176]	< 500 nM
Cc1nc(NCC2CC(F)(F)C2)nc(N[C@@H]2C[C@H](C(C)(F)F)[C@@H](O)[C@H]2O)c1-c1nc2c(C3CC3)nccc2s1 [Example 5177]	< 500 nM
Cc1nc(NC2CC2)nc(N[C@@H]2C[C@H](C(F)F)[C@@H](O)[C@H]2O)c1-c1nc2c(C3CC3)nccc2s1 [Example 5178]	< 500 nM
CCCNc1nc(C)c(-c2nc3c(C4CC4)nccc3s2)c(N[C@@H]2C[C@H](C(F)F)[C@@H](O)[C@H]2O)n1 [Example 5179]	< 500 nM
Cc1nc(NCC(C)C)nc(N[C@@H]2C[C@H](C(F)F)[C@@H](O)[C@H]2O)c1-c1nc2c(C3CC3)nccc2s1 [Example 5180]	< 500 nM
Cc1nc(NCC(C)(C)C)nc(N[C@@H]2C[C@H](C(F)F)[C@@H](O)[C@H]2O)c1-c1nc2c(C3CC3)nccc2s1 [Example 5181]	< 500 nM
